In patent publication US5126345A, “Bis (hydroxymethyl) cyclobutyl triazolopyrimidines” (E. R. Squibb & Sons, Inc., priority 1991, dated 1992):
Read-outs that look alike come from different tables or passages of the source.

Columns and labels:
Type in all cases: cell-based
[1] = system: HSV-1 (herpes simplex virus type 1, strain Schooler); test: HSV-1 antiviral assay, plaque reduction in WI-38 cell culture monolayers; conditions: Human alphaherpesvirus 1, 96 h; at least 50% plaque reduction; WI-38 cells; 4 days incubation at 37° C; read-out: ID50 HSV-1
Description: (§1) Assays were performed in cell culture systems to determine the concentrations of compounds that are effective in preventing several kinds of viral infections.
(§2) HSV-1 (herpes simplex virus type 1, strain Schooler), HSV-2 (herpes simplex virus type 2, strain 186), VZV (varicella zoster virus, strain ELLEN), HCMV (human cytomegalovirus, strain AD 169), MuLV (murine leukemia virus, strain CAS), HIV (human immunodeficiency virus, strain HTLV-IIIB).
(§3) HSV-1, HSV-2, HCMV, and VZV antiviral assays: Virus was adsorbed to WI-38 cell culture monolayers in 6 well culture plates (Costar, Cambridge, MA) for 1 hour prior to addition of maintenance medium containing duplicate dilutions of the test compound. Inhibition of plaque development was evaluated on fixed and stained monolayers after 4 days incubation at 37° C. for HSV-1 and HSV-2 and after 6-7 days incubation at 37° C. for HCMV and VZV. ID50 values were determined from the drug concentration which conferred at least a 50% plaque reduction compared to virus controls.

[2] = system: HSV-2 (herpes simplex virus type 2, strain 186); test: HSV-2 antiviral assay, plaque reduction in WI-38 cell culture monolayers; conditions: Human alphaherpesvirus 2, 96 h; at least 50% plaque reduction; WI-38 cells; 4 days incubation at 37° C; read-out: ID50 HSV-2
Description: as §1, §2, §3

[3] = system: VZV (varicella zoster virus, strain ELLEN); test: VZV antiviral assay, plaque reduction in WI-38 cell culture monolayers
Description: as §1, §2, §3

[4] = system: HCMV (human cytomegalovirus, strain AD 169); test: HCMV antiviral assay, plaque reduction in WI-38 cell culture monolayers
Description: as §1, §2, §3

[5] = system: MuLV (murine leukemia virus, strain CAS); test: MuLV antiviral assay, syncytial plaques, SC-1 cells with XC cell overlay; conditions: SC1, read-out: ID50 MuLV
Description: as §1, §2
MuLV antiviral assay: Antiviral assays using MuLV were performed with some modification, as described by Rowe et al. and Shannon et al.. SC-1 cells were planted at approximately 2×10^5 cell per well in 6 well plates. After overnight incubation at 37° C., the cell cultures were sensitized with DEAE-Dextran for one hour at 37° C., rinsed and inoculated with MuLV. Cultures were re-fed with growth medium containing different concentrations of the test compound. After three more days at 37° C., cultures were re-fed with fresh medium plus test compounds and incubated at 37° C. for an additional 3 days. Cultures were then washed to remove medium, ultraviolet light irradiated, and planted with approximately 5×10^5 XC cells per well in cell growth medium containing the appropriate concentration of the test compound. […] Finally the cultures were rinsed, stained and syncytial plaques were counted. […]

[6] = Human alphaherpesvirus 3, WI-38, read-out: ID50 VZV
[7] = Human betaherpesvirus 5, WI-38, read-out: ID50 HCMV
[8] = Human alphaherpesvirus 3, at least 50% plaque reduction, WI-38 cells, 6-7 days incubation at 37° C, read-out: ID50 VZV

Nc1nc2c(ncn2[C@H]2C[C@@H](CO)[C@@H]2CO)c(=O)[nH]1 (relative stereo) [(1α,2β,3α)-9-[2,3-Bis(hydroxymethyl)cyclobutyl]guanine]
IC50 [1]: 0.08 to 0.2 µM | IC50 [2]: 0.04 to 0.08 µM | IC50 [3, 6]: 0.2 µM | IC50 [4, 7]: 3.8 µM | IC50 [5]: 3.8 µM

O=c1[nH]c(=O)n([C@H]2C[C@@H](CO)[C@@H]2CO)cc1/C=C/Br (relative stereo) [[1α(E),2β,3α]-1-[2,3-Bis(hydroxymethyl)cyclobutyl]-5-(2-bromoethenyl)-2,4(1H,3H)pyrimidinedione]
IC50 [1]: 10 to 30 µM | IC50 [3, 8]: 0.03 to 0.06 µM

Nc1ccn([C@H]2C[C@@H](CO)[C@@H]2CO)c(=O)n1 (relative stereo) [(1α,2β,3α)-4-Amino-1-[2,3-bis(hydroxymethyl)cyclobutyl]-2(1H)-pyrimidinone]
IC50 [1]: 444 µM | IC50 [2]: 444 µM | IC50 [3, 6]: 22 µM | IC50 ([4]; Human betaherpesvirus 5, at least 50% plaque reduction, WI-38 cells, 6-7 days incubation at 37° C, read-out: ID50 HCMV): 22 to 44 µM

O=c1[nH]c(=O)n([C@H]2C[C@@H](CO)[C@@H]2CO)cc1I (relative stereo) [(1α,2β,3α)-1-[2,3-Bis(hydroxymethyl)cyclobutyl]-5-iodo-2,4(1H,3H)-pyrimidinedione]
IC50 [1]: 6 to 14 µM | IC50 [3, 8]: 14 to 28 µM

Nc1ncnc2c1ncn2[C@H]1C[C@@H](CO)[C@@H]1CO (relative stereo) [(1α,2β,3α)-3-(6-Amino-9H-purin-9-yl)1,2-cyclobutanedimethanol]
IC50 [1]: 8 µM | IC50 [2]: 4 to 8 µM | IC50 [3, 8]: 0.8 to 2 µM | IC50 [4, 7]: 0.8 µM

Nc1nc2c(nnn2[C@H]2C[C@@H](CO)[C@@H]2CO)c(=O)[nH]1 (relative stereo) [(1α,2β,3α)-5-Amino-3-[2,3-bis(hydroxymethyl)cyclobutyl]-3,6-dihydro-7H-1,2,3-triazolo[4,5-d]pyrimidin-7-one]
IC50 [1]: 7.5 µM | IC50 [2]: 7.5 µM | IC50 [4, 7]: 376 µM
